For this experiment, the target named is cAMP and cAMP-inhibited cGMP 3',5'-cyclic phosphodiesterase 10A (Homo sapiens, UniProt Q9Y233). The experiment can be described thus: PDE10A assay. In short, it runs like this: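 Human PDE10A (2 ng/well) preincubated 15 min RT with compound in HEPES pH 7.5, 10 mM MgCl2, BSA, then reacted 15 min with 50 nM [3H]cGMP/cGMP substrate. Stopped with Y-Si SPA beads; bound radioactivity counted, IC50 from four-parameter logistic, pIC50 = −log10(IC50).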
The IC50 is the concentration that inhibits the measured activity by half. A high value points to weaker potency. As to `Cn1ncc(C(=O)N2CCC2)c1C(=O)Nc1cc(-c2ccccn2)n[nH]1` [Roche-Dataset for PDE10A, Compound 664], the IC50 stood at 8.3 nM.
In turn, `Cc1cc(NC(=O)c2c(C(=O)N3CCC3)cnn2C)n(C2CCCC2)n1` [Roche-Dataset for PDE10A, Compound 1046] yielded an IC50 of 649 nM.
The figure for `Cc1cc(C)n2nc(/C=C/c3nc(N4CCCC4)nn3C3CC3)nc2n1` [Roche-Dataset for PDE10A, Compound 350] is 21 nM; for `CCn1nc(-c2ccccn2)cc1NC(=O)c1nc(C2CC2)ccc1Nc1cncnc1` [US8470820, 30] it is 4.73 nM.
The molecule `Cn1cc(-c2cccc(CCc3nc(-c4ccccc4)cn3C)n2)cn1` [Roche-Dataset for PDE10A, Compound 296] showed an IC50 of 6500 nM.
Molecule `CCOc1cccc(NC(=O)c2nc(C3CC3)cnc2Nc2cncnc2)c1` [Roche-Dataset for PDE10A, Compound 602] displayed an IC50 of 26 nM.
Molecule `CC(=O)c1nn(C)cc1NC(=O)c1nc(C2CC2)cnc1Nc1cncnc1` [Roche-Dataset for PDE10A, Compound 1016] gave a half-maximal inhibitory concentration (IC50) of 49 nM.
With `COc1ccccc1-c1cn2c(n1)C[C@H](NC(=O)c1c(C(=O)N(C)C)cnn1C)CC2` [Roche-Dataset for PDE10A, Compound 473], the IC50 is 8.21 nM.
Regarding `Cc1cnc(C)n2nc(CCc3nc(N4CCCC4)nn3C3CC3)nc12` [Roche-Dataset for PDE10A, Compound 436], it took 18 nM to reach half-maximal inhibition (IC50).
The molecule `Cc1ccc2c(c1)c(=O)n(C)c1c(C)nc(-c3ccccc3Cl)n21` [Roche-Dataset for PDE10A, Compound 948] returned an IC50 of 27 nM.
In the case of `CCN(C)C(=O)c1ncccc1NC(=O)c1nc(C2CC2)cnc1Nc1cncnc1` [US8703768, 199], the half-maximal inhibitory concentration (IC50) was found to be 5.93 nM.
To `CNC(=O)c1c(NC(=O)c2c(C(=O)N3CCC3)cnn2C)cnn1C` [Roche-Dataset for PDE10A, Compound 1129] belongs 8330 nM; to `COCCn1ccc(NC(=O)c2c(C(=O)N3CCC3)cnn2C)n1` [Roche-Dataset for PDE10A, Compound 1067], 327 nM.
`CC(C)NC(=O)c1cccc(NC(=O)c2nc(C3CC3)cnc2Nc2cncnc2)n1` [Roche-Dataset for PDE10A, Compound 928] displayed an IC50 of 8.6 nM.
To `Cc1ccc(C)c(C(=O)Nc2cc(-c3ccccn3)nn2C)n1` [Roche-Dataset for PDE10A, Compound 726] belongs 3340 nM; to `CN(c1cncnc1)c1ccc(C2CC2)nc1C(=O)Nc1cc(-c2ccccn2)nn1C` [Roche-Dataset for PDE10A, Compound 360], 5600 nM.
On to `Cc1cc(NC(=O)c2c(C(=O)N3CCC3)cnn2C)n[nH]1` [Roche-Dataset for PDE10A, Compound 1149], for which inhibition was half-maximal at 2680 nM (IC50).
With `CNC(=O)c1c(-c2nc(CCc3nc4c(C)ncc(C)n4n3)n(C)n2)cnn1C` [Roche-Dataset for PDE10A, Compound 290], the IC50 amounted to 337 nM.
The figure for `O=C(N[C@@H]1C[C@H]2CC[C@@H]1C2)c1nc(C2CC2)cnc1Nc1cncnc1` [Roche-Dataset for PDE10A, Compound 1126] is 1080 nM; for `Cc1cnc(C)n2nc(/C=C/c3nc(Br)nn3C)nc12` [Roche-Dataset for PDE10A, Compound 1128] it is 2060 nM; for `O=C(NCCS(=O)(=O)c1ccccc1)c1nc(C2CC2)cnc1Nc1cncnc1` [Roche-Dataset for PDE10A, Compound 746] it is 3450 nM.
`O=C(Nc1ccnc(C(=O)N2CCCCC2)c1)c1nc(C2CC2)cnc1Nc1cncnc1` [Roche-Dataset for PDE10A, Compound 730] gave a half-inhibitory concentration (IC50) of 67 nM.
The molecule `COc1ccc2c(=O)n(C)c3c(C(C)C)nc(-c4ccccc4Cl)n3c2c1` [Roche-Dataset for PDE10A, Compound 908] displayed an IC50 of 771 nM.
`CC(C)OC(=O)c1c(C(=O)Nc2ccn3nc(-c4ccccc4)nc3c2)cnn1C` [Roche-Dataset for PDE10A, Compound 428]: the half-inhibitory concentration (IC50) stood at 15 nM.
Turning to `Cn1ncc(C(=O)N2CCC2)c1C(=O)N[C@@H]1CCn2cc(-c3cccc(Cl)c3)nc2C1` [Roche-Dataset for PDE10A, Compound 161], the midpoint of inhibition, the IC50, lay at 6.59 nM.
`O=C(Nc1conc1-c1ccccc1)c1nc(C2CC2)ccc1Nc1cncnc1` [Roche-Dataset for PDE10A, Compound 935]: the IC50 was 6.91 nM.
Turning to `Cc1ncc(C)n2nc(/C=C/c3nc(N4CCCC4)cn3C)nc12` [Roche-Dataset for PDE10A, Compound 596], the IC50 turned out to be 326 nM.
The molecule `Cn1ncc(-c2ccccc2)c1C(=O)Nc1ccn2nc(-c3ccccc3)nc2c1` [Roche-Dataset for PDE10A, Compound 172] yielded an IC50 of 131 nM.
`O=C(Nc1ccnn1S(=O)(=O)C(F)(F)F)c1nc(C2CC2)ccc1Nc1cncnc1` [Roche-Dataset for PDE10A, Compound 1004] yielded an IC50 of 30 nM.
Regarding `CN(CCF)C(=O)c1cnn(C)c1C(=O)N[C@@H]1CCn2cc(-c3ccccc3)nc2C1` [Roche-Dataset for PDE10A, Compound 190], 205 nM corresponded to half-maximal inhibition (IC50).
In turn, `O=C(NCCN1CCc2ccccc2C1=O)c1nc(C2CC2)cnc1Nc1cncnc1` [Roche-Dataset for PDE10A, Compound 451] yielded an IC50 of 574 nM.
In the case of `CCOC(=O)c1cnn(C)c1C(=O)Nc1ccn2nc(-c3cccnc3)nc2c1` [Roche-Dataset for PDE10A, Compound 268], inhibition was half-maximal at 34 nM (IC50).
For the molecule `COc1nc(OCc2nc(-c3ccccc3)cn2C)nc2ccccc12` [Roche-Dataset for PDE10A, Compound 411], the IC50 turned out to be 61 nM.
In turn, `Cn1cc(-c2ccccc2)nc1/C=C/c1cc(Cl)nc(Cl)n1` [Roche-Dataset for PDE10A, Compound 543] returned an IC50 of 2310 nM.
For the molecule `CS(=O)(=O)CCNC(=O)c1nc(C2CC2)cnc1Nc1cncnc1` [Roche-Dataset for PDE10A, Compound 1061], half-maximal inhibition (IC50) required 1630 nM.
For the molecule `Cc1cccc(-c2cc(NC(=O)c3c(C(=O)N4CCC4)cnn3C)n[nH]2)n1` [Roche-Dataset for PDE10A, Compound 548], inhibition was half-maximal at 9.76 nM (IC50).
Molecule `C[C@@H](NC(=O)c1ccc(NC(=O)c2nc(C3CC3)ccc2Nc2cncnc2)s1)c1ccccc1` [Roche-Dataset for PDE10A, Compound 563] returned an IC50 of 320 nM.
Molecule `Cc1nc(C(=O)N2CCC2)c(C(=O)Nc2ccn3nc(-c4ccccc4)nc3c2)n1C` [Roche-Dataset for PDE10A, Compound 75] yielded an IC50 of 20 nM.
With `Cn1nc(-c2ccc(Cl)cn2)cc1NC(=O)c1nc(C2CC2)ccc1Nc1cncnc1` [US8470820, 39], inhibition was half-maximal at 3.16 nM (IC50).
`CCC(=O)c1cc(NC(=O)c2nc(C3CC3)cnc2Nc2cncnc2)ccc1O` [Roche-Dataset for PDE10A, Compound 875] had an IC50 of 26 nM.
For `CC(C)Oc1cncc(NC(=O)c2nc(C3CC3)cnc2Nc2cncnc2)c1` [Roche-Dataset for PDE10A, Compound 816], the IC50 was found to be 63 nM.
The figure for `O=C(Nc1cnccc1C(=O)N1CC(F)(F)C1)c1nc(C2CC2)ccc1Nc1cncnc1` [Roche-Dataset for PDE10A, Compound 508] is 30 nM.
`COCCOc1ccc(NC(=O)c2nc(C3CC3)cnc2Nc2cncnc2)c(C(=O)NCC(C)(C)O)c1` [US8703768, 213]: 0.74 nM corresponded to half-maximal inhibition (IC50).
`CCn1ccc(NC(=O)c2c(C(=O)N3CCC3)cnn2C)n1` [Roche-Dataset for PDE10A, Compound 1121]: the IC50 was found to be 1320 nM.
Molecule `Cc1ncc(C)n2nc(CCc3nc(Br)nn3C)nc12` [Roche-Dataset for PDE10A, Compound 1131] registered a concentration for half-maximal inhibition (IC50) of 2480 nM.
In turn, `CNC(=O)c1nn(C)cc1NC(=O)c1ccc2cc(-c3ccccc3)nn2c1` [Roche-Dataset for PDE10A, Compound 532] yielded an IC50 of 195 nM.
Molecule `Cn1ncc(C(=O)N2CCC2)c1C(=O)Nc1ccn2cc(-c3cccc(OCCCF)c3)nc2n1` [Roche-Dataset for PDE10A, Compound 28] registered an IC50 of 7.34 nM.
In turn, `O=C(Nc1nc2cccnc2s1)c1nc(C2CC2)ccc1Nc1cncnc1` [Roche-Dataset for PDE10A, Compound 811] gave an IC50 of 20 nM.
Turning to `CNC(=O)c1cc2[nH]c(-c3ccccc3)nc2cc1NC(=O)c1oc(COCc2ccccc2)nc1C` [Roche-Dataset for PDE10A, Compound 152], inhibition was half-maximal at 51 nM (IC50).
`Cn1cc(Br)c(C(=O)Nc2cc(-c3ccccn3)nn2C)n1` [Roche-Dataset for PDE10A, Compound 934] registered an IC50 of 811 nM.
`Cn1nc(-c2ccccn2)cc1NC(=O)c1nc(C2CC2)ccc1Nc1cncnc1` [US8470820, 8] showed an IC50 of 3.23 nM.
With `Cn1cc(-c2ccccc2)nc1COc1nc2ccccc2nc1N1CCCC1` [Roche-Dataset for PDE10A, Compound 403], inhibition was half-maximal at 7.71 nM (IC50).
`Cn1cc(-c2ccccc2)nc1CCc1ncoc1-c1ccccc1` [Roche-Dataset for PDE10A, Compound 361] displayed an IC50 of 1000 nM.
For `Cc1c(Cl)cc(C(F)(F)F)c2nc(/C=C/c3nc(Br)nn3C)nn12` [Roche-Dataset for PDE10A, Compound 764], the IC50 was 115 nM.
In the case of `Cc1ncc(C(C)C)c2nc(CCc3nc(N4CCCC4)nn3C)nn12` [Roche-Dataset for PDE10A, Compound 672], the half-maximal inhibitory concentration (IC50) is 7.01 nM.
The figure for `CC(C)c1cc(NC(=O)c2c(C(=O)N3CCC3)cnn2C)n(C2CCCC2)n1` [Roche-Dataset for PDE10A, Compound 1042] is 854 nM; for `CCN(C)C(=O)c1cnn(C)c1C(=O)Nc1ccn2cc(-c3cccc(OCCO)c3)nc2n1` [Roche-Dataset for PDE10A, Compound 39] it is 8.81 nM.
The molecule `CCn1nccc1NC(=O)c1ccc2cc(-c3ccccc3)nn2c1` [Roche-Dataset for PDE10A, Compound 654] had an IC50 of 575 nM.
The molecule `Cc1c(Cl)cc(Cl)c2nc(CCc3cn4cccnc4n3)nn12` [Roche-Dataset for PDE10A, Compound 785] gave an IC50 of 360 nM.
As to `O=C(Nc1cc(-c2ccccn2)nn1Cc1ccccc1)c1nc(C2CC2)ccc1Nc1cncnc1` [US8470820, 29], the 50% inhibitory concentration (IC50) was determined as 1.71 nM.
